Assay results published in US20240391923A1, “METHIONINE ADENOSYLTRANSFERASE 2A INHIBITOR FOR TREATING MTAP DELETION-TYPE CANCER” (SUZHOU GENHOUSE BIO CO., LTD., priority 2022, published 2024).
Read-outs that look alike come from different tables or passages of the source.

Key:
[1] = target: MAT2A recombinant protein (Homo sapiens, UniProt P31153); test: MAT2A inhibitory activity (malachite green colorimetric enzyme assay); format: biochemical
Text: MAT2A catalyzes the reaction of L-methionine and ATP to generate S-adenosylmethionine (SAM), inorganic phosphonic acid, and inorganic diphosphonic acid. Malachite green reacts with inorganic phosphonic acid to generate a green product, and the enzyme activity of MAT2A can be indirectly reflected by detecting the content of the inorganic phosphonic acid in a sample.
The test compounds were formulated using DMSO and diluted 1:3 diluted through 10 concentration points to give a final starting concentration in the reaction system of 1000 nM. The test compounds at different concentrations described above were transferred to a 384-well plate. Experimental buffer (50 mM HEPES pH 7.5, 50 mM KCl, 10 mM MgCl2, 10 mM DTT) was prepared. 2×MAT2A recombinant protein was prepared using the buffer and added to a 384-well plate. A mixed solution of 2×L-methionine and ATP was prepared using the buffer, and added to a 384-well plate. The enzymatic reaction was started, and the reaction was carried out at room temperature for 60 min. 20 μL of a colorimetric detection reagent was added to the above system, and incubated at room temperature for 15 min. The absorbance at 630 nm was measured. The inhibition rate of the compound on the enzyme activity was calculated, and the inhibition rate value and the logarithm value of the compound concentration were fitted using non-linear regression (dose response-variable slope) to give the IC50 value of the test compound.

[2] = test system: HCT116-MTAP-knockout (−/−) cell strain; test: Tumor cell proliferation inhibition assay (CellTiter-Glo), HCT116-MTAP-knockout (-/-); format: cell-based; details: Homo sapiens, 120 h, 5-day treatment
Method: (§1) After the HCT116-MTAP-knockout (−/−) cell strain, the HCT116-MTAP wild-type(+/+)-cell strain, the DOHH-2 cell strain, or the Hut-78 cell strain was treated with the test compound for 5 days, the ATP level was measured using a CellTiter-Glo kit of Promega to evaluate the inhibition of the test compound against the growth of the tumor cell strain.
(§2) In the present application, the HCT116-MTAP-knockout (−/−) cell strain, the HCT116-MTAP wild-type (+/+)-cell strain, the DOHH-2 cell strain, or the Hut-78 cell strain was seeded into a 96-well cell culture plate at an appropriate cell density. After 24 h, the cells were treated using the test compounds diluted 1:3 fold at the highest concentration of 10 μM for 10 gradients, and a DMSO treatment group was set up separately. The cells were cultured in a 37° C./5% CO2 incubator for 5 days.

[3] = test system: HCT116-MTAP wild-type (+/+)-cell strain; test: Tumor cell proliferation inhibition assay (CellTiter-Glo), HCT116-MTAP wild-type (+/+); format: cell-based; details: Homo sapiens, 120 h, 5-day treatment
Method: as §1, §2

[4] = test system: SDMA in HCT116-MTAP-knockout cell line; test: Cell symmetric dimethylarginine (SDMA) test, In-cell Western, HCT116-MTAP-knockout; format: cell-based; details: Homo sapiens, 96 h
[5] = test system: SDMA in human colon cancer cell line HCT116; test: Cell symmetric dimethylarginine (SDMA) test, In-cell Western, HCT116 (MTAP wild-type); format: cell-based; details: Homo sapiens, HCT-116, 96 h
Text: MAT2A catalyzes the reaction of L-methionine and ATP to generate SAM, inorganic phosphonic acid, and inorganic diphosphonic acid. SAM is an important methyl donor, and is a substrate of arginine methyltransferase 5 (PRMT5). PRMT5 catalyzes SDMA modification of multiple proteins within a cell. The intracellular SDMA modification level was detected by ICW (In-cell Western), and the inhibition of the test compound on the enzymatic activity of intracellular MAT2A was indirectly reflected.
In the present application, the human colon cancer cell line HCT116 and the corresponding HCT116-MTAP-knockout cell line were seeded into a 96-well cell culture plate at an appropriate cell density. After 24 h, the cells were treated using the test compounds diluted 1:4 fold at the highest concentration of 6 μM for 6 gradients, and a DMSO treatment group was set up separately. The cells were cultured in a 37° C./5% CO2 incubator for 4 days. To test the inhibitory activity of the test compounds against tumor cell SDMA, the medium was discarded, and the plate was washed 3 times with PBST. 4% paraformaldehyde was then used at room temperature for fixation for 20 min. The fixation solution was discarded, the plate was washed 3 times with PBST, and a special blocking solution was added to each well for blocking at room temperature for 2 h. The blocking solution was discarded. After the plate was washed 3 times with PBST, the plate was incubated with SDMA antibody at 4° C. overnight. The next day, the plate was washed 3 times with PBST. The secondary antibody and DRAQ5 were diluted to an appropriate concentration with the blocking solution, and incubated at room temperature for 2 h; the plate was washed 3 times with PBST, and the fluorescence signals at 700 nm and 800 nm were detected using a Li—COR Odyssey two-color near-infrared laser imager.
The data was then processed. After the corresponding background value was subtracted from each well, statistical analysis was performed on the 800 nm/700 nm ratio for each well, a sigmoidal dose-inhibition curve was plotted using a non-linear regression model, and IC50 values were fitted and calculated. Inhibition Rate (%)=(1−SDMA dose/SDMA DMSO control)*100. SDMA dose is the value of the drug treatment group, and SDMA DMSO control is the value of the DMSO control group.

[6] = IC50 score class, read-out: MAT2A Inhibition (score)
[7] = HCT116-MTAP−/− cells, IC50 class score, read-out: Tumor cell 5-day relative growth inhibition (HCT116-MTAP−/−) (nM), score
[8] = HCT116-MTAP−/− cells, read-out: Tumor cell 5-day relative growth inhibition (HCT116-MTAP−/−)
[9] = HCT116-MTAP+/+ cells, IC50 class score, read-out: Tumor cell 5-day relative growth inhibition (HCT116-MTAP+/+) (nM), score
[10] = HCT116-MTAP+/+ cells, read-out: Tumor cell 5-day relative growth inhibition (HCT116-MTAP+/+)
[11] = HCT116-MTAP-knockout (−/−) cells, IC50 score, read-out: Tumor cell 5-day relative growth inhibition (HCT116-MTAP−/−) (nM), score
[12] = HCT116-MTAP-knockout (−/−) cells, IC50 value, read-out: Tumor cell 5-day relative growth inhibition (HCT116-MTAP−/−)
[13] = HCT116-MTAP wild-type (+/+) cells, IC50 score, read-out: Tumor cell 5-day relative growth inhibition (HCT116-MTAP+/+) (nM), score
[14] = HCT116-MTAP wild-type (+/+) cells, IC50 value, read-out: Tumor cell 5-day relative growth inhibition (HCT116-MTAP+/+)
[15] = IC50 score class, read-out: Cell 96 h SDMA Inhibition (HCT116-MTAP−/−) (score)
[16] = read-out: Cell 96 h SDMA Inhibition (HCT116-MTAP−/−)
[17] = IC50 score class, read-out: Cell 96 h SDMA Inhibition (HCT116-MTAP+/+) (score)
[18] = read-out: Cell 96 h SDMA inhibition (HCT116-MTAP+/+)

MAT2A recombinant protein, sequence (P31153 whole entry): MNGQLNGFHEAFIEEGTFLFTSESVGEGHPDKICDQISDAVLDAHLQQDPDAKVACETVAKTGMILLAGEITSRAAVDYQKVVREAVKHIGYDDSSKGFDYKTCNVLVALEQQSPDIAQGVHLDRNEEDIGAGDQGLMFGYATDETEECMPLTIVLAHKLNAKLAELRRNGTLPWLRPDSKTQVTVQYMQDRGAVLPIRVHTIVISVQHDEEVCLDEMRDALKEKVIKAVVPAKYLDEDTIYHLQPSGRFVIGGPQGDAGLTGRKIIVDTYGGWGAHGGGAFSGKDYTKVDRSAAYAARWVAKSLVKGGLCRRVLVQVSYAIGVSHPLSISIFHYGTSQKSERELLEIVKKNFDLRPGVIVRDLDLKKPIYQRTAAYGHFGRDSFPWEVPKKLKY

| IC50 [1, 6] [nM] | IC50 ([1]; read-out: MAT2A Inhibition) [nM] | IC50 [2, 7] [nM] | IC50 [2, 8] [nM] | IC50 [3, 9] [nM] | IC50 [3, 10] [nM] | IC50 [2, 11] [nM] | IC50 [2, 12] [nM] | IC50 [3, 13] [nM] | IC50 [3, 14] [nM] | IC50 [4, 15] [nM] | IC50 [4, 16] [nM] | IC50 [5, 17] [nM] | IC50 [5, 18] [nM] | SMILES |
| --- | --- | --- | --- | --- | --- | --- | --- | --- | --- | --- | --- | --- | --- | --- |
| > 1000 | > 10000 | ≥ 2000 | > 10000 | ≥ 2000 | > 10000 |  |  |  |  |  |  |  |  | Cn1ncc2c3ccc(C(F)(F)F)nc3n(-c3ccccc3Cl)c(=O)c21 [Compound B410] |
| > 1000 | > 10000 | ≥ 2000 | > 10000 | ≥ 2000 | > 10000 |  |  |  |  |  |  |  |  | Cn1cnc2c(=O)n(-c3ccc4ccccc4c3)c3nc(C(F)(F)F)ccc3c21 [Compound B404] |
|  |  | ≥ 2000 | > 10000 | ≥ 2000 | > 10000 |  |  |  |  |  |  |  |  | Cn1cnc2c(=O)n(-c3cccc4ncccc34)c3nc(C(F)(F)F)ccc3c21 [Compound B408] |
|  |  |  |  |  |  | < 500 | 355 | ≥ 2000 | > 10000 |  |  |  |  | Cn1cc2c(n1)c(=O)n(-c1cccnc1C(F)(F)F)c1cc(Cl)c(F)cc21 [Compound B342] |
|  |  | ≥ 2000 | > 10000 | ≥ 2000 | > 10000 |  |  |  |  |  |  |  |  | CCOc1ccc2c3cn(C)nc3c(=O)n(-c3ccc(OC(F)F)cc3)c2n1 [Compound B400] |
|  |  | 500 to 2000 | 1530 | ≥ 2000 | 4040 |  |  |  |  |  |  |  |  | O=c1c2n[nH]cc2c2ccc(C(F)(F)F)nc2n1-c1ccccc1Cl [Compound B409] |
|  |  | ≥ 2000 | > 10000 | ≥ 2000 | > 10000 |  |  |  |  |  |  |  |  | Cn1cnc2c(=O)n(-c3cncc4ccccc34)c3nc(C(F)(F)F)ccc3c21 [Compound B406] |
|  |  |  |  |  |  | ≥ 2000 | > 10000 | ≥ 2000 | ≥ 10000 |  |  |  |  | Cn1cc2c(n1)c(=O)n(-c1cccnc1C1CC1)c1cc(Cl)c(C#N)cc21 [Compound B348] |
|  |  |  |  |  |  | ≥ 2000 | > 10000 | ≥ 2000 | > 10000 |  |  |  |  | Cn1cnc2c(=O)n(-c3cccc4[nH]ncc34)c3cc(Cl)c(C#N)cc3c21 [Compound B375] |
| > 1000 | > 10000 | ≥ 2000 | > 10000 | ≥ 2000 | > 10000 |  |  |  |  |  |  |  |  | Cn1cnc2c(=O)n(-c3ccc4ccccc4n3)c3nc(C(F)(F)F)ccc3c21 [Compound B402] |
| < 100 | 83 |  |  |  |  | < 500 | 327 | 500 to 2000 | 875 | < 200 | 61 |  |  | Cc1n[nH]c2cccc(-n3c(=O)c4nn(C)cc4c4ccc(Cl)cc43)c12 [Compound B277] |
| < 100 | 17 |  |  |  |  | < 500 | 69.7 |  |  | < 200 | 57.5 |  |  | O=c1c2nn(C(F)F)cc2c2cc(F)c(Cl)cc2n1-c1cccc2[nH]ncc12 [Compound B260] |
| < 100 | 10 |  |  |  |  |  |  |  |  | < 200 | 11 | > 3000 | > 10000 | Cn1cc2c(n1)c(=O)n(-c1cccc3[nH]ncc13)c1cc(C(F)(F)F)c(C#N)cc21 [Compound B391] |
| > 1000 | > 10000 | ≥ 2000 | > 10000 | ≥ 2000 | > 10000 |  |  |  |  |  |  |  |  | Cn1cnc2c(=O)n(-c3ccc4ncccc4n3)c3nc(C(F)(F)F)ccc3c21 [Compound B405] |
| < 100 | 49.9 |  |  |  |  |  |  |  |  | 1000 to 3000 | 1440 | > 3000 | 15300 | Cn1cc2c(n1)c(=O)n(-c1cncc(F)c1)c1nc(C(F)(F)F)ccc21 [Compound B202] |
|  |  | ≥ 2000 | > 10000 | ≥ 2000 | > 10000 |  |  |  |  |  |  |  |  | Cn1cnc2c(=O)n(-c3ccc4ncccc4c3)c3nc(C(F)(F)F)ccc3c21 [Compound B401] |
| 100 to 1000 | 668 |  |  |  |  |  |  |  |  | > 3000 | 4280 | > 3000 | > 3000 | Cn1cc2c(n1)c(=O)n(Cc1cn[nH]c1)c1cc(Cl)ccc21 [Compound B235] |
| 100 to 1000 | 105 |  |  |  |  | ≥ 2000 | 2830 |  |  |  |  |  |  | CCn1cc2c(n1)c(=O)n(-c1ccccc1)c1cc(Cl)ccc21 [Compound B2] |
| < 100 | 25.5 |  |  |  |  |  |  |  |  | 1000 to 3000 | 1370 | > 3000 | > 3000 | Cn1cc2c(n1)c(=O)n(-c1cccc(C(N)=O)c1)c1nc(C(F)(F)F)ccc21 [Compound B234] |
| < 100 | 61.8 |  |  |  |  |  |  |  |  | 200 to 1000 | 818 | > 3000 | > 3000 | COc1cc2c3cn(C)nc3c(=O)n(-c3cccnc3)c2cc1Cl [Compound B171] |
|  |  | ≥ 2000 | > 10000 | ≥ 2000 | > 10000 |  |  |  |  |  |  |  |  | Cn1cnc2c(=O)n(-c3cccc4ccncc34)c3nc(C(F)(F)F)ccc3c21 [Compound B407] |
| > 1000 | > 10000 | ≥ 2000 | > 10000 | ≥ 2000 | > 10000 |  |  |  |  |  |  |  |  | Cn1cnc2c(=O)n(-c3cnc4ccccc4c3)c3nc(C(F)(F)F)ccc3c21 [Compound B403] |
| < 100 | 43.9 |  |  |  |  |  |  |  |  | < 200 | 14.6 | 200 to 1000 | 298 | Cc1ncccc1-n1c(=O)c2nn(C)cc2c2ccc(C3CC3)nc21 [Compound B75] |
| < 100 | 10 |  |  |  |  |  |  |  |  | < 200 | 5.2 | > 3000 | > 10000 | Cn1cc2c(n1)c(=O)n(-c1cccc3[nH]nc(F)c13)c1cc(Cl)c(F)cc21 [Compound B411] |
